Data published in patent US9212146B2, “Substituted pyridazinones for the treatment of tumors” (SHANGHAI INSTITUTE OF MATERIA MEDICA, CHINESE ACADEMY OF …, priority 2008, dated 2015).
Read-outs that look alike come from different tables or passages of the source.

Experiments:
[1] = system: human liver cancer cells Bel-7402 transplanted tumor; format: in vivo; conditions: 60 mg/kg, PO, QDx16
Description: Name and lot number: YHHU-744, a white powder, lot No.: No. c001471-106; YHHU-755, a white powder, lot No.: No. c001471-102; YHHU-756, a white powder, lot No.: No. c00147-106; YHHU-759, a white powder, lot No.: No. c001471-102; YHHU-776, a white powder, lot No.: No. c001471-107. Sorafenib was used as a positive control.
Formulation: YHHU-744, YHHU-755, YHHU-756, YHHU-759, YHHU-776 and the positive control were each diluted with 0.1% Tween-80 and distilled water to a desired concentration.
BALB/cA nude mice, 6-7 weeks old, ♀, were purchased from Shanghai SLAC Laboratory Animal Co. LTD. Certificate No.: SCXK (Shanghai) 2007-0005. Habitat: SPF level.
Human liver cancer cells Bel-7402 were inoculated on nude mice subcutaneously. After the tumor grew up to 300-450 mm^3, animals were grouped randomly (d0). The tumor volume was measured 2-3 times each week and the weights of mice were recorded. The tumor volume was calculated according to as the following equation. V=½×a×b^2 wherein, a and b are length and width, respectively. […]

[2] = system: human renal carcinoma cell line A498; assay: SRB proliferation assay, A498; format: cell-based; conditions: 72 hours
Method: (§1) Protocol: the antineoplasmic activities in vitro of the compounds were assayed by a Sulforhodamine B (SRB) protocol. Tumor cells were cultivated at 37 under 5% CO2 in a RPMI 1640 medium or a DMEM medium (Gibco) containing 10% fetal bovine serum. Tumor cells were inoculated on a 96-well plate with a concentration of 0.4-1.0×10^4 cells per well according to the cell types. 24 hours later, the target compounds diluted 10 times were added, each compound having at least 5 concentrations. After treated by the compounds for 72 hours, the culture media were discarded, and the cells were fixed by 10% cold trichloroacetic acid, and then stained by Sulforhodamine B (SRB) solution. The uncombined SRB was washed off, and the SRB combined with protein was dissolved with Tris. OD values were recorded at 515 nm on an ELISA Reader, and the cell growth inhibition rate was calculated according to following equation: Inhibition rate=(ODcontrol−ODexperimental)/ODcontrol×100%
(§2) IC50 (50% inhibitory concentration) was calculated by using Logit method based on the inhibition rates at various concentration, and the results are shown in tables 1 and 2. […]

[3] = system: human hepatoma cell line Bel-7402; assay: SRB proliferation assay, Bel-7402; format: cell-based; conditions: Homo sapiens, Bel-7402, 72 h
Method: as §1
IC50 (50% inhibitory concentration) was calculated by using Logit method based on the inhibition rates at various concentration, and the results are shown in tables 1 and 2.
The following cell lines were used: human hepatocarcinoma cell line […]; ovarian cancer cell line SK-OV-3; human breast cancer cell line MDA-MB-231; human renal carcinoma cell line A498; colon adenocarcinoma cell line HT-29; non-small cell lung cancer cell line NCI-H460; lung adenocarcinoma cell line A549; human colon cancer cell line SW-620; human hepatoma cell line Bel-7402; human breast carcinoma cell line SK-BR-3; and human umbilical vein endothelial cells (HUVEC).

[4] = system: human hepatocarcinoma cell line SIMM-7721; assay: SRB proliferation assay, SIMM-7721; format: cell-based; conditions: SIMM-7721, liver cancer, 72 hours
Method: as §1, §2

[5] = system: ovarian cancer cell line SK-OV-3; assay: SRB proliferation assay, SK-OV-3; format: cell-based; conditions: Homo sapiens, 72 hours
Method: as §1, §2

[6] = system: human umbilical vein endothelial cells (HUVEC); assay: SRB proliferation assay, HUVEC; format: cell-based; conditions: human umbilical vein endothelial cells (normal cells), 72 hours
Method: as §1, §2

[7] = system: non-small cell lung cancer cell line NCI-H460; assay: SRB proliferation assay, NCI-H460; format: cell-based; conditions: Homo sapiens, 72 hours
Method: as §1, §2

[8] = system: colon adenocarcinoma cell line HT-29; assay: SRB proliferation assay, HT-29; format: cell-based; conditions: Homo sapiens, HT-29, colon carcinoma, 72 hours
Method: as §1, §2

liver cancer of animals = assay: Curative effect against liver cancer of animals in vivo
[9] = system: human breast carcinoma cell line SK-BR-3; assay: SRB proliferation assay, SK-BR-3; format: cell-based; conditions: SK-BR-3, breast carcinoma, 72 hours
Method: as §1, §2

[10] = system: human colon cancer cell line SW-620; assay: SRB proliferation assay, SW-620; format: cell-based; conditions: SW-620, colon carcinoma, 72 hours
Method: as §1, §2

[11] = system: human breast cancer cell line MDA-MB-231; assay: SRB proliferation assay, MDA-MB-231; format: cell-based; conditions: MDA-MB-231, breast carcinoma, 72 hours
Method: as §1, §2

SMILES | Quantity of Animals Whose Tumors Vanished ([1]; 5 animals per group) | Inhibition Rate (%) ([1]; Bel-7402 on nude mice) | Tumor Volume (mm^3) ([1]; Bel-7402 on nude mice) | IC50 [2] [µM] | IC50 ([3]; BEL-7402 cultivated in vitro, given as bounds, read-out: The Inhibition Activities for Human Liver Cancer Cells BEL-7402 (IC50)) [µM] | IC50 ([3]; Bel-7402, liver cancer, Table 1, read-out: IC50) [µM] | IC50 [4] [µM] | IC50 [5] [µM] | IC50 [6] [µM] | IC50 [7] [µM] | IC50 [8] [µM] | curative effect against liver cancer of animals in vivo (liver cancer of animals) | IC50 [9] [µM] | IC50 [10] [µM] | IC50 [11] [µM]
CNC(=O)c1cc(Oc2ccc(NC(=O)Nc3ccc(Cl)c(C(F)(F)F)c3)cc2)ccn1 [Sorafenib, reference compound] | 0 | 50 | 279.8 | – | – | – | – | – | – | – | – | – | – | – | –
O=c1ccc(-c2ccc(N3CCCC3)c(C(F)(F)F)c2)n[nH]1 [YHHU-646] | – | – | – | 4.12 | < 0.01 | 0.0007 | < 0.1 | 0.003 | 0.03 | 24.1 | 6.3 | significant curative effect | 7.5 | 5.8 | > 20
